Measured values reported in patent publication US20190030018A1 (Celgene Corporation, priority 2017, published 2019).
Where two headings read alike, the source gives them in different places.

Tests used:
[1] = tested on: MOLM-13; experiment: In vitro combination studies, CellTitre-Glo cell viability; conditions: MOLM-13; in combination with Compound 1
[2] = tested on: OCI-AML-2; experiment: as above; conditions: OCI-AML-2; in combination with Compound 1
[3] = tested on: KG-1; experiment: as above; conditions: KG-1; in combination with Compound 1
[4] = tested on: HNT-34; experiment: as above; conditions: HNT-34; in combination with Compound 1
[5] = tested on: NOMO-1; experiment: as above; conditions: NOMO-1; in combination with Compound 1
[6] = tested on: OCT-AML-3; experiment: as above; conditions: OCI-AML-3; in combination with Compound 1
[7] = tested on: HL-60; experiment: as above; conditions: HL-60; in combination with Compound 1
[8] = tested on: MV-4-11; experiment: as above; conditions: MV-4-11; in combination with Compound 1
[9] = tested on: AML cell lines; experiment: In vitro combination studies, CellTitre-Glo cell viability (Bliss, Loewe, HSA, CES synergy analysis); conditions: FLT3 and JAK inhibitors in combination with Compound 1 in MOLM-13 and NOMO-1 cell lines
Method: where EA and EB represent the effect of each single agent and EAB represents the effect of the combination at a given dose.
All data was analyzed using the CES equation:
In cases where single agent dose response fit a Hill slope, the CES analysis was compared to Loewe, Bliss, and HSA models.

[10] = tested on: F-36-P; experiment: In vitro combination studies, CellTitre-Glo cell viability; conditions: F-36-P; in combination with Compound 1
[11] = tested on: ML-2; experiment: as above; conditions: ML-2; in combination with Compound 1
[12] = GA0087 PDX model ex vivo 3D methylcellulose CellTiter-Glo cell viability assay (IC50, matrix combination, Combination Index)
Method: (§1) Materials and Methods: The stomach cancer cell line GA0087 was used in this study. […] Culture media was purchased from GIBCO or Sigma, USA.
(§2) Everolimus was obtained from Selleck. Cisplatin was used as a reference drug, and was obtained from Hospira Australia pty Ltd.
(§3) PDX tumor models were maintained at Crownbio HuPrime animal facility. Tumor growth was monitored weekly. Tumor volumes were measured in two dimensions using a caliper, and the volume was expressed in mm^3 using the formula: V=0.5 a×b^2 where a and b are the long and short diameters of the tumor, respectively. • 2. Mouse xenografts at tumor volume around 800 mm^3 were housed with sterile surgical tools and tumor tissue was minced into tiny pieces with scissors in small amount of PBS on a new tissue culture plate. • 3. The cell suspension was filtered through Falcon cell strainer. The nylon mesh was washed 3-5 times with PBS. • 4. The cell suspension was centrifuged at 1000 rpm for 5 minutes and the pellet was washed with PBS and centrifuged again. • 5. Red blood cells were removed using red blood cell lysis buffer. • 6. The cell suspension was centrifuged at 1000 rpm for 5 minutes and the pellet was washed with PBS and centrifuged again. • 7. The cell pallet was re-suspended with appropriate cell culture media for different cells. • 8. Cells were counted with Countstar by trypan blue exclusion.
(§4) Day −1: Cell Plating • 1. The cells were harvested during the logarithmic growth period. The harvested cells were cultured with appropriate cell media and centrifuged at 1000 rpm for 3 minutes. […] (Cell concentration was adjusted according to the data base or density optimization assay). • 3. 3.5 mL of cell suspension was mixed with 6.5 mL of 1% methylcellulose. […] 90 μL cell suspensions were added to 96-well plates according to plate map with final cell density. Two duplicate plates were set up: one for day 0 reading (T0) and the other was cultured in incubator for reading at the end point.
(§5) Day 0: T0 Plate Reading and Compound Treatment • 5.10 μL culture medium was added to T0 plate in each well for T0 reading. • 6.100 μl CellTiter-Glo® Reagent was added to each well. • 7. The contents were mixed for 2 minutes on an orbital shaker to facilitate cell lysis. • 8. The plates were allowed to incubate at room temperature for 10 minutes to stabilize luminescent signal. • 9. A backseal black sticker was placed to the bottom of each plate. • 10. The luminescence was read using EnVision Multi Label Reader. • 11.
(§6) The solutions were stored at −20° C. […] The response score was calculated by normalizing to DMSO control. The combination index (CI) was calculated using Chou and Talalay method, wherein a CI of less than 1 indicates synergy. Cisplatin was used as control in the single compound dose response, but was not included in the combination test.
(§7) After drug incubation, pictures for representative wells were taken using a phase contrast microscope. • 13. 100 μL CellTiter-Glo® Reagent was added to each well. • 14. Contents were mixed for 2 minutes on an orbital shaker to facilitate cell lysis. • 15. The plates were allowed to incubate at room temperature for 10 minutes to stabilize luminescent signal. • 16. Backseal black sticker was placed to the bottom of each plate. • 17. Luminescence was recorded using EnVision Multi Label Reader.
(§8) In order to calculate IC50, a dose-response curve was fitted using nonlinear regression model with a sigmoidal dose response. The formula of surviving rate is shown below, and the IC50 was automatically produced by GraphPad Prism 5.0.
(§9) The surviving rate (%)=(LumTest article−LumMedium control)/(LumNone treated−LumMedium control)×100%.

[13] = tested on: stomach cancer cell line GA0087; experiment: as above
Method: as §1, §2, §3, §4, §5, §6, §7, §8, §9

[14] = tested on: IL3 independent JAK2 V617F BaF3 cells; experiment: Combination studies with JAK2 inhibitors in engineered BaF3 cells, CellTitre-Glo after 3 days; type: cell-based; conditions: compared to the IL3 dependent lines
Method: Everolimus was included as a control. The cell viability was then measured by CellTitre-Glo® after 3 days.

Row | Molecule | Synergy analysis for combinations with Compound 1 [1] | Synergy analysis for combinations with Compound 1 [2] | Synergy analysis for combinations with Compound 1 [3] | Synergy analysis for combinations with Compound 1 [4] | Synergy analysis for combinations with Compound 1 [5] | Synergy analysis for combinations with Compound 1 [6] | Synergy analysis for combinations with Compound 1 [7] | Synergy analysis for combinations with Compound 1 [8] | Synergy [9] | Synergy analysis for combinations with Compound 1 [10] | Synergy analysis for combinations with Compound 1 [11] | IC50 ([12]; read-out: Absolute IC50, GA0087-1st experiment) [µM] | IC50 ([12]; read-out: Absolute IC50, GA0087-2nd experiment) [µM] | IC50 ([12]; read-out: Relative IC50, GA0087-1st experiment) [µM] | IC50 ([12]; read-out: Relative IC50, GA0087-2nd experiment) [µM] | Maximal Inhibition ([13]; GA0087-1st experiment) [%] | Maximal Inhibition ([13]; GA0087-2nd experiment) [%] | single agent sensitivity [14]
1 | CC1(COc2ccc3c(c2)ncn3-c2ccc3cccc(N4CCC(N)CC4)c3n2)COC1 [Crenolanib] | Yes | No | No | No | No | No | No | Yes | Yes | No | No |  |  |  |  |  |  | 
2 | CC[C@@](C)(Nc1ccnc(-c2c[nH]c3ncccc23)n1)C(=O)NCC(F)(F)F [Decernotinib] |  |  |  |  |  |  |  |  | Yes |  |  |  |  |  |  |  |  | 
3 | O=C(Nc1nc2cccc(-c3ccc(CN4CCS(=O)(=O)CC4)cc3)n2n1)C1CC1 [Filgotinib] |  |  |  |  |  |  |  |  | Yes |  |  |  |  |  |  |  |  | 
4 | FC(F)(F)c1ccc(CNc2ccc(Cc3c[nH]c4ncc(Cl)cc34)cn2)cn1 [Pexidartinib] | Yes | No | No | No | No | No | No | Yes | Yes | No | No |  |  |  |  |  |  | 
5 | O=C(/C=C/c1ccccc1)NC(NC(=S)Nc1cccc2cccnc12)C(Cl)(Cl)Cl (centres unmarked) [Salubrinol] | No | No | No | No | No | No | No | No |  | No | No |  |  |  |  |  |  | 
6 | COC(=O)[C@H]1[C@@H](O)[C@@]2(O)c3c(OC)cc(O[C@@H]4O[C@@H]([C@H](O)CO)CO[C@H]4OC)cc3O[C@@]2(c2ccc(OC)cc2)[C@@H]1c1ccccc1 [Silvestrol] | No | No | No | No | No | No | No | No |  | No | No |  |  |  |  |  |  | 
7 | C/C=C(/C)C(=O)O[C@H]1C(C)=C2[C@H]([C@@H]1OC(=O)CCCCCCC)[C@@](C)(OC(C)=O)C[C@H](OC(=O)CCC)[C@@]1(O)[C@H]2OC(=O)[C@@]1(C)O [Thapsigargin] | No | No | No | No | No | No | No | No |  | No | No |  |  |  |  |  |  | 
8 | CC(C)[C@]12O[C@H]1[C@@H]1O[C@]13[C@]1(O[C@H]1C[C@H]1C4=C(CC[C@@]13C)C(=O)OC4)[C@@H]2O [Triptolide] | Yes | No | No | No | No | No | No | No |  | No | No |  |  |  |  |  |  | 
9 | C[C@H](NC(=O)Cc1cc(F)cc(F)c1)C(=O)N[C@@H]1C(=O)N(C)c2ccccc2-c2ccccc21 [YO-01027] | No | No | No | No | No | No | No | No |  | No | No |  |  |  |  |  |  | 
10 | N.N.[Cl][Pt][Cl] [cisplatin] |  |  |  |  |  |  |  |  |  |  |  | 3.35 | 3.53 | 3.17 | 3.3 | 98.73 | 98.48 | 
11 | N#CCNC(=O)c1ccc(-c2ccnc(Nc3ccc(N4CCOCC4)cc3)n2)cc1 [momelotinib, reference compound] |  |  |  |  |  |  |  |  | Yes |  |  |  |  |  |  |  |  | more sensitive
12 | C1=C/COCc2cc(ccc2OCCN2CCCC2)Nc2nccc(n2)-c2cccc(c2)COC/1 [pacritinib, reference compound] |  |  |  |  |  |  |  |  | Yes |  |  |  |  |  |  |  |  | 
13 | CC(C)(C)c1cc(NC(=O)Nc2ccc(-c3cn4c(n3)sc3cc(OCCN5CCOCC5)ccc34)cc2)no1 [quizartinib, reference compound] |  |  |  |  |  |  |  |  | Yes |  |  |  |  |  |  |  |  | 
14 | chloro-N,N-diethyl-5-((4-(2-(4-(3-methylureido)phenyl)pyridin-4-yl)pyrimidin-2-yl)amino)benzenesulfonamide [compound Ii, reference compound] | Yes | Yes | No | No | Yes | Yes | No | Yes |  | Yes | No |  |  |  |  |  |  | 
15 | pladienolide B [reference compound] | Yes | Yes | No | No | Yes | No | No | Yes |  | Yes | No |  |  |  |  |  |  | 
